Results reported in patent US7772241B2, “Variolin derivatives and their use as antitumor agents” (Pharma Mar S.A., priority 2001, dated 2010).
Where two headings read alike, the source gives them in different places. Each block holds one molecule with its values, some of them ahead of it.

Key:
[1] = system: K-562; assay: Inhibition of cells growth by colorimetric (SRB) assay, K-562; details: for GI50 / CC50: Homo sapiens, K562, 48 h; for GI50: read-out: K-562 GI50, SRB assay, 48 hours exposure; for CC50: read-out: K-562 LC50, SRB assay, 48 hours exposure; for K-562 TGI: SRB assay, 48 hours exposure
How it was run: (§1)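 Human tumour cells seeded at 5×10^3/well in RPMI 1640 10% FBS, attached 18 h, then exposed 48 h to samples at 10 to 10^−8 μg/ml in DMSO/EtOH/PBS (0.5:0.5:99). Growth read by SRB staining after TCA fixation, OD 490 nm, triplicate wells; GI, TGI and LC derived.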

[2] = system: IGROV-1; assay: Inhibition of cells growth by colorimetric (SRB) assay, IGROV-1; details: for GI50 / CC50: Homo sapiens, IGROV-1, 48 h; for GI50: read-out: IGROV GI50, SRB assay, 48 hours exposure; for CC50: read-out: IGROV LC50, SRB assay, 48 hours exposure; for IGROV TGI: SRB assay, 48 hours exposure
How it was run: as §1

[3] = system: HeLa-APL; assay: Inhibition of cells growth by colorimetric (SRB) assay, HeLa-APL; details: for GI50 / CC50: Homo sapiens, 48 h; for GI50: read-out: HELA-APL GI50, SRB assay, 48 hours exposure; for CC50: read-out: HELA-APL LC50, SRB assay, 48 hours exposure; for HELA-APL TGI: SRB assay, 48 hours exposure
Description: (§2) The finality of these assays is to interrupt the growth of a “in vitro” tumor cell culture by means a continued exhibition of the cells to the sample to be testing.
(§3) This form of the assay employs 96 well cell culture microplates of 9 mm diameter (Faircloth, 1988; Mosmann, 1983). Most of the cell lines are obtained from American Type Culture Collection (ATCC) derived from different human cancer types.
(§4) Cells are maintained in RPMI 1640 10% FBS, supplemented with 0.1 g/l penicillin and 0.1 g/l streptomycin sulphate and then incubated at 37° C., 5% CO2 and 98% humidity. For the experiments, cells were harvested from subconfluent cultures using trypsin and resuspended in fresh medium before plating.
(§5) Cells are seeded in 96 well microtiter plates, at 5×10^3 cells per well in aliquots of 195 μl medium, and they are allowed to attach to the plate surface by growing in drug free medium for 18 hours. Afterward, samples are added in aliquots of 5 μl in a ranging from 10 to 10^−8 μg/ml, dissolved in DMSO/EtOH/PBS (0.5:0.5:99). After 48 hours exposure, the antitumor effect are measured by the SRB methodology: cells are fixed by adding 50 μl of cold 50% (wt/vol) trichloroacetic acid (TCA) and incubating for 60 minutes at 4° C. Plates are washed with deionized water and dried. One hundred μl of SRB solution (0.4% wt/vol in 1% acetic acid) is added to each microtiter well and incubated for 10 minutes at room temperature. Unbound SRB is removed by washing with 1% acetic acid. Plates are air dried and bound stain is solubilized with Tris buffer. Optical densities are read on a automated spectrophotometric plate reader at a single wavelength of 490 nm.
(§6) The values for mean +/−SD of data from triplicate wells are calculated. Some parameters for cellular responses can be calculated: GI=growth inhibition, TGI=total growth inhibition (cytostatic effect) and LC=cell killing (cytotoxic effect).

[4] = system: PANC-1; assay: Inhibition of cells growth by colorimetric (SRB) assay, PANC-1; details: for GI50 / CC50: Homo sapiens, PANC-1, 48 h; for GI50: read-out: PANC-1 GI50, SRB assay, 48 hours exposure; for CC50: read-out: PANC-1 LC50, SRB assay, 48 hours exposure; for PANC-1 TGI: SRB assay, 48 hours exposure
How it was run: as §1

[5] = system: DU-145; assay: Inhibition of cells growth by colorimetric (SRB) assay, DU-145; details: for GI50 / CC50: Homo sapiens, DU-145, 48 h; for GI50: read-out: DU-145 GI50, SRB assay, 48 hours exposure; for CC50: read-out: DU-145 LC50, SRB assay, 48 hours exposure; for DU-145 TGI: SRB assay, 48 hours exposure
How it was run: as §1

[6] = system: LoVo-Dox; assay: Inhibition of cells growth by colorimetric (SRB) assay, LoVo-Dox; details: for GI50 / CC50: Homo sapiens, 48 h; for GI50: read-out: LOVO-DOX GI50, SRB assay, 48 hours exposure; for CC50: read-out: LOVO-DOX LC50, SRB assay, 48 hours exposure; for LOVO-DOX TGI: SRB assay, 48 hours exposure
How it was run: as §1

[7] = system: A-549; assay: Inhibition of cells growth by colorimetric (SRB) assay, A-549
How it was run: as §1

[8] = system: HT-29; assay: Inhibition of cells growth by colorimetric (SRB) assay, HT-29
How it was run: as §1

[9] = system: SK-MEL-28; assay: Inhibition of cells growth by colorimetric (SRB) assay, SK-MEL-28; details: for GI50 / CC50: Homo sapiens, SK-MEL-28, 48 h; for GI50: read-out: MEL-28 GI50, SRB assay, 48 hours exposure; for CC50: read-out: MEL-28 LC50, SRB assay, 48 hours exposure; for MEL-28 TGI: SRB assay, 48 hours exposure
How it was run: as §1

[10] = system: SK-BR-3; assay: Inhibition of cells growth by colorimetric (SRB) assay, SK-BR-3; details: for GI50 / CC50: Homo sapiens, SK-BR-3, 48 h; for GI50: read-out: SK-BR-3 GI50, SRB assay, 48 hours exposure; for CC50: read-out: SK-BR-3 LC50, SRB assay, 48 hours exposure; for SK-BR-3 TGI: SRB assay, 48 hours exposure
How it was run: as §1

[11] = system: HeLa; assay: Inhibition of cells growth by colorimetric (SRB) assay, HeLa; details: for GI50: Homo sapiens, HeLa, 48 h, read-out: HELA GI50, SRB assay, 48 hours exposure; for HELA TGI: SRB assay, 48 hours exposure
Description: as §2, §3, §4, §5, §6

[12] = system: LoVo; assay: Inhibition of cells growth by colorimetric (SRB) assay, LoVo; details: for GI50 / CC50: Homo sapiens, LoVo, 48 h; for GI50: read-out: LOVO GI50, SRB assay, 48 hours exposure; for CC50: read-out: LOVO LC50, SRB assay, 48 hours exposure; for LOVO TGI: SRB assay, 48 hours exposure
How it was run: as §1

[13] = system: LNCaP; assay: Inhibition of cells growth by colorimetric (SRB) assay, LNCaP; details: for GI50 / CC50: Homo sapiens, LNCaP, 48 h; for GI50: read-out: LN-caP GI50, SRB assay, 48 hours exposure; for CC50: read-out: LN-caP LC50, SRB assay, 48 hours exposure; for LN-caP TGI: SRB assay, 48 hours exposure
How it was run: as §1

[14] = system: IGROV-ET; assay: Inhibition of cells growth by colorimetric (SRB) assay, IGROV-ET; details: for GI50 / CC50: Homo sapiens, 48 h; for GI50: read-out: IGROV-ET GI50, SRB assay, 48 hours exposure; for CC50: read-out: IGROV-ET LC50, SRB assay, 48 hours exposure; for IGROV-ET TGI: SRB assay, 48 hours exposure
How it was run: as §1

[15] = Homo sapiens, A549, 48 h, read-out: A-549 GI50, SRB assay, 48 hours exposure
[16] = Homo sapiens, A549, 48 h, read-out: A-549 LC50, SRB assay, 48 hours exposure
[17] = Homo sapiens, HT-29, 48 h, read-out: HT-29 GI50, SRB assay, 48 hours exposure
[18] = Homo sapiens, HT-29, 48 h, read-out: HT-29 LC50, SRB assay, 48 hours exposure

GI50 [1]: 4.72 µM | GI50 [3]: 0.0569 µM | GI50 [4]: 6.53 µM | GI50 [5]: 4.27 µM | GI50 [6]: 3.1 µM | GI50 [7, 15]: 7.31 µM | GI50 [8, 17]: 4.41 µM | GI50 [9]: 4.97 µM | GI50 [10]: 1.34 µM | GI50 [11]: 0.0449 µM | GI50 [12]: 5.11 µM | GI50 [13]: 3.49 µM
Compound: CSc1nccc(-c2c3cc4ccccc4nc3n3c(N)nccc23)n1 [Compound 18a]
CC50 [1]: ≥ 27.9 µM | K-562 TGI [1]: 1.66E−05 | GI50 [2]: 5.47 µM | CC50 [2]: ≥ 27.9 µM | IGROV TGI [2]: 1.33E−05 | CC50 [3]: 6.56 µM | HELA-APL TGI [3]: 8.31E−07 | CC50 [4]: ≥ 27.9 µM | PANC-1 TGI [4]: 1.46E−05 | CC50 [5]: 23.3 µM | DU-145 TGI [5]: 9.99E−06 | CC50 [6]: ≥ 27.9 µM | LOVO-DOX TGI [6]: 9.74E−06 | CC50 [7, 16]: ≥ 27.9 µM | A-549 TGI ([7]; SRB assay, 48 hours exposure): 1.66E−05 | CC50 [8, 18]: ≥ 27.9 µM | HT-29 TGI ([8]; SRB assay, 48 hours exposure): 1.67E−05 | CC50 [9]: ≥ 27.9 µM | MEL-28 TGI [9]: 1.20E−05 | CC50 [10]: ≥ 27.9 µM | SK-BR-3 TGI [10]: 4.94E−06 | HELA TGI [11]: 3.68E−06 | CC50 [12]: 17 µM | LOVO TGI [12]: 9.32E−06 | CC50 [13]: 15.3 µM | LN-caP TGI [13]: 7.31E−06 | GI50 [14]: 7.06 µM | CC50 [14]: ≥ 27.9 µM | IGROV-ET TGI [14]: 1.53E−05

GI50 [1]: 5.27 µM | GI50 [3]: 0.0182 µM | GI50 [4]: 5.71 µM | GI50 [5]: 1.68 µM | GI50 [6]: 1.22 µM | GI50 [7, 15]: 0.937 µM | GI50 ([7]; Homo sapiens, A549, 48 h, read-out: GI50 A-549, SRB assay, 48 hours exposure): 2.17 µM | GI50 [8, 17]: 0.932 µM | GI50 ([8]; read-out: HT-29 GI50, SRB assay, 48 hours exposure): 1.13 µM | GI50 [9]: 0.85 µM | GI50 [10]: 1.24 µM | GI50 [11]: 0.0233 µM | GI50 [12]: 0.717 µM | GI50 [13]: 1.36 µM
Compound: CSc1nccc(-c2c3ccc(C)nc3n3c(N)nccc23)n1 [Compound 43]
CC50 [1]: 21.2 µM | K-562 TGI [1]: 1.06E−05 | GI50 [2]: 6.64 µM | CC50 [2]: ≥ 31 µM | IGROV TGI [2]: 1.60E−05 | CC50 [3]: 7.88 µM | HELA-APL TGI [3]: 1.75E−07 | CC50 [4]: ≥ 31 µM | PANC-1 TGI [4]: 1.65E−05 | CC50 [5]: 24.5 µM | DU-145 TGI [5]: 6.79E−06 | CC50 [6]: ≥ 31 µM | LOVO-DOX TGI [6]: 5.24E−06 | CC50 [7, 16]: 31.1 µM | CC50 ([7]; read-out: A-549 LC50, SRB assay, 48 hours exposure): ≥ 17.3 µM | CC50 [8, 18]: 31.1 µM | CC50 ([8]; read-out: HT-29 LC50, SRB assay, 48 hours exposure): ≥ 31 µM | CC50 [9]: 15.3 µM | MEL-28 TGI [9]: 3.72E−06 | CC50 [10]: ≥ 31 µM | SK-BR-3 TGI [10]: 5.27E−06 | HELA TGI [11]: 2.03E−07 | CC50 [12]: ≥ 31 µM | LOVO TGI [12]: 2.37E−06 | CC50 [13]: 12.5 µM | LN-caP TGI [13]: 3.94E−06 | GI50 [14]: 3.69 µM | CC50 [14]: ≥ 31 µM | IGROV-ET TGI [14]: 1.87E−05
